Results published in patent publication US20140377189A1, “PULMONARY ADMINISTRATION OF ROTIGOTINE” (MAP Pharmaceuticals, Inc., priority 2013, published 2014).

Assay: In situ rotigotine salt screening (precipitate formation in ethanol/HFA 227 solution formulation)
Format: physicochemical
Settings: 10% (w/w) ethanol in HFA 227; for Observation Immediate / Observation 1 week at RT / Observation 1 week at 5° C.: 1 mg/mL rotigotine free base with acid; for Observation Immediate: immediately upon preparation; for Observation 1 week at RT: stored 1 week at room temperature; for Observation 1 week at 5° C.: another week at 5° C. after 1 week at RT
Protocol: Rotigotine, bulk drug substance, was purchased from Chemagis (Perrigo API). A stock solution of rotigotine was prepared by dissolving rotigotine particles in ethanol at 10 mg/mL. With 1.5 mL rotigotine stock solution added to formulation bottles, each formulation bottle contained 15 mg rotigotine. For preparation of acid stock solutions, it was assumed that complete reaction or ion-pairing between rotigotine and acid. Based on the molecular weight and number of anions of each acid as listed in Table 1, acids stock solutions were prepared by dissolving the required amount in ethanol.
Each formulation bottle was filed with 1.5 mL of rotigotine stock solution and 1.0 ml, of acid stock solution. The formulation bottles (PET bottles) were then sealed with continuous valves and vortexed for 30 seconds to mix the solution well. Finally, 17.6 g of 1,1,1,2,3,3,3-heptafluoropropane (HFA227 (Mexichem)) to make a final volume of 15 mL of rotigotine formulation. All the bottles were hand shaken for 10 seconds.
All in situ salt screening samples were made as 1 mg/mL of rotigtine free base in 10% (w/w) ethanol in HFA 227. Acids corresponding to the salt forms in Table 1 were added according to the molar ratio with rotigotine for complete reaction. As 1 mg/mL was the minimal required dose at the time of experiment, all formulations were tested at this level to screen out non-solution salt formulations.
These were the rotigotine citrate, fumarate, succinate, sulfate, tartrate, xinafoate salt formulations. […] rotigotine salt formulations were immediately ruled out as the precipitate formation was not desired. All clear solution samples were stored at room temperature (RT) for 1 week. […] These were rotigotine acetate, benzoate and mesylate salt formulations. These 3 rotigotine salt formulations were also ruled out as precipitate formation is not desired. The rest of the samples remained as clear solutions (stable) at after another week at 5° C.
Out of the 7 acids that remained a clear solution after 1 week of storage, rotigotine maleate was selected as the lead candidate and suitable as a stable solution for oral pulmonary aerosol delivery.

Row | Molecule | Observation Immediate | Observation 1 week at RT | Observation 1 week at 5° C. | stayed in solution formulation at the minimum required concentration (minimum required concentration 1 mg/mL)
1 | CC(=O)O.CCCN(CCc1cccs1)[C@H]1CCc2c(O)cccc2C1 [Acetate, rotigotine acetate] | solution | red precipitate |  | 
2 | CC(O)C(=O)O.CCCN(CCc1cccs1)[C@H]1CCc2c(O)cccc2C1 [Lactate, rotigotine lactate] | solution | solution | solution | 
3 | O=S(=O)(O)O [Sulfate] | white precipitate |  |  | 
4 | Benzoate | solution | red precipitate |  | 
5 | Fumarate | white precipitate |  |  | 
6 | Tartrate | white precipitate |  |  | 
7 | rotigotine citrate | white precipitate |  |  | 
8 | rotigotine glycolate | solution | solution | solution | 
9 | rotigotine maleate | solution | solution | solution | stayed in solution
10 | rotigotine palmitate | solution | solution | solution | 
11 | rotigotine pamoate | solution | solution | solution | 
12 | rotigotine propionate | solution | solution | solution | 
13 | rotigotine stearate | solution | solution | solution | 
